Measured values taken from US11035858B2, “Methods of isolating barrel-like proteases and identifying peptides processed thereby” (Yeda Research and Development Co. Ltd., priority 2016, dated 2021).
Residues, ends and D or L forms follow the SMILES beside them. *: point of attachment. Cbz = O=C(OCc1ccccc1)*

Target: T1, Purified proteasomes (Homo sapiens, UniProt P28074)
T1 construct: using this protocol active proteasomes are efficiently isolated from cells; endogenous in cells; immunoprecipitated with anti-α6 antibodies
Assay: Proteasome activity-based assay with fluorogenic Suc-LLVY-Amc substrate
Format: biochemical
Settings: fluorescent LLVY peptide substrate; FIG. 2
Description: Proteasome Activity-Based Assay.
Purified proteasomes were incubated with the fluorogenic substrate peptide Suc-LLVY-Amc (100 μM) in a reaction mixture containing 50 mM Hepes, pH 7.5, 1 mM DTT, 5 mM MgCl2, and 2 mM ATP. fluorescence of cleaved Amc was measured (excitation, 360 nm; emission, 470 nm).
A unique system of ‘Proteasomal Profiling’ was developed for the isolation of the active-degradome from the cell by purifying the proteasomal peptide pool, which represents proteins actively undergoing degradation at the time of experiment (FIG. 1). Proteasomal complexes were purified by immunoprecipitation using specific antibodies against the α6 subunit of the 20S core particle. To examine whether the catalytic activity of the proteasomes is retained during the purification procedures, an activity-based assay was performed using a fluorescent LLVY peptide substrate.

Structure (SMILES): CC(C)C[C@@H](C=O)NC(=O)[C@H](CC(C)C)NC(=O)[C@H](CC(C)C)NC(=O)OCc1ccccc1 [MG132] (Cbz-Leu-Leu-Leu-aldehyde)
- degradation of the LLVY substrate by purified proteasomes: sensitive
